Reference: patent US6716436B1, “Cosmetic composition for slimming containing L-arginine, an L-arginine analogue, or one of their derivatives, for topical application” (Exsymol S.A.M., priority 1999, dated 2004)
Where two headings read alike, the source gives them in different places. Values belong to the compound of their own block, whether it stands above or below them.

What was measured:
[1] = tested on: rats ZUCKER fa/fa; experiment: Test in vivo on rats (weight and measurement over 5 weeks); details: group II ionisation every two days
Source text: Three groups of 4 rats ZUCKER fa/fa defined in an homogeneous way were placed in the animal house at 8 weeks. The experiment begins when the rats have reached 9 weeks and similar weights (240±15 g); they are placed in individual cage with water and food ad libidum. The whole of the rats are circularly hair removed on median part in order to tattoo an axis between the neck and the tail. On a group N^o I, the emulsion described in example 1 is daily applied on the hair-removed part until absorption with removing the excess. […] A third group is used as the control (group C). These experiments are carried out during 5 weeks.

[2] = tested on: Segments of perirenal adipose tissue; experiment: Lipolytic activity in vitro (glycerol liberation); assay type: cell-based, male rabbits; details: rabbit perirenal adipose tissue, 37° C.
Experimental: The in vitro lipolytic activity of solutions containing compounds according to the invention is tested (Solutions at 4%).
Segments of perirenal adipose tissue of male rabbits are incubed in a Krebs-Ringer bicarbonate buffer pH 7.4, which contains 5,5 mM glucose, 40 mg/ml of bovin albumin serum. The total volume of incubation is 3 ml with the substance to be tested prepared in 0.01 M of NH4HCO3 and additionned in a volume of 0.1 ml. The preparations are stirred at 37° C., under a 95% O2, 5% CO2 atmosphere.
The lipolytic activity levels are quantified by glycerol liberation in the incubation medium and are expressed by gramme of lipid. The glycerol is dosed in duplicate by enzymatic method: glycerokinase, glycerophosphate deshydrogenase (Boerhinger-Mannheim), method of Wieland (32), modified by Vaughan (33).

[3] = hairless, rat, 30 mM
Experimental: (§1) Hairless rats are sacrified by intra-cardiac injection of pentobarbital; the ventral skin is recollected and hypodermis is removed with a scalpel. 0.2 ml by cm^2 of the solution to be tested are dropped on a piece of skin (dermis and epidermis) which is set on a diffusion cell. The diffusion is tested in comparison with phosphate buffer containing 0.5% of tween 20.
(§2) At different times, the phosphate buffer is replaced and L-arginine is dosed by HPLC in the recollected dialysate fractions.

[4] = Comparative study of cutaneous diffusion (diffusion cell); details: solution at 30 mM, 0.2 ml by cm^2 on hairless rat skin; L-arginine dosed by HPLC in dialysate
Experimental: as §1, §2

Structure (SMILES): N=C(N)NCCC[C@H](N)C(=O)O.O=C(O)c1ccccc1O [Group II, arginium salicylate]
Meas ([1]; Week 1, group I daily topical): 189.75 mm | Weight ([1]; Week 1, group I daily topical): 280.25 g | Meas ([1]; Week 2, group I daily topical): 213.25 mm | Weights ([1]; Week 2, group I daily topical): 318.25 g | Meas ([1]; Week 3, group I daily topical): 224.25 mm | Weights ([1]; Week 3, group I daily topical): 345.5 g | Meas ([1]; Week 4, group I daily topical): 233.25 mm | Weights ([1]; Week 4, group I daily topical): 367.25 g | Meas ([1]; Week 5, group I daily topical): 238.5 mm | Weights ([1]; Week 5, group I daily topical): 386.25 g

Structure (SMILES): C[Si](O)(O)OC(=O)C(N)CCCNC(=N)N [Monomethylsilanediol of L-arginine]
Glycerol ([2]; 15 mg/L): 1 ± 0.5 nmoles/g of lipids | Glycerol ([2]; 30 mg/L): 2.40 ± 0.35 nmoles/g of lipids | Glycerol ([2]; 45 mg/L): 2.5 ± 0.35 nmoles/g of lipids | % of diffusion after 5h [3]: 42%

% of diffusion after 5h [4]: 51%
Structure (SMILES): CC(C)(C)C(=O)OCOC(=O)[C@@H](N)CCCNC(=N)N [L-arginylpivalloyoxymethylester]
